Source: patent US20030059483A1, “Color stable hypochlorous sanitizer and methods” (priority 1999, published 2003)

How the values were obtained:
Format in all cases: physicochemical
[1] = Chlorine stability of acid sanitizer solutions; conditions: chlorine 12 ppm, pH 5.13
[2] = Dye and chlorine stability test, effect of pH; conditions: 1 ppm dye; for Initial Color/Appearance: additional formulations; for Initial Color/Appearance / Time needed for solution to become colorless: 100 ppm active chlorine; for Color/Appearance: initial 100 ppm chlorine
[3] = Color longevity at varying active chlorine and dye level, pH 5.8; conditions: for Initial Color/Appearance / Time needed for solution to become colorless: 1 ppm dye

Question: What does the source list for “Chlorinated trisodium phosphate [Chlorinated TSP]”?
Answer: Chlorine (ppm) Conc. 0 Time ([1]; 0 time): 12.7 ppm; Chlorine (ppm) Conc. 4 Hours ([1]; 4 hours): 9.93 ppm; Chlorine (ppm) Conc. 24 Hours ([1]; 24 hours): 5.67 ppm

Question: For COc1cc(S(=O)(=O)[O-])c(C)cc1N=Nc1c(O)ccc2cc(S(=O)(=O)[O-])ccc12.[Na+].[Na+] [FD&C Red #40], which “Initial Color/Appearance” value ([2]; pH buffered at 2) is on record?
Answer: Its value is “colorless”.

Question: What about the “Initial Color/Appearance” value ([2]; pH buffered at 4) of the same molecule?
Answer: Its value is “visible color”.

Question: And the “Initial Color/Appearance” value ([2]; pH buffered at 5.4)?
Answer: Its value is “visible color”.

Question: What about the “Initial Color/Appearance” value ([2]; pH buffered at 5.8) of the same molecule?
Answer: Its value is “visible color”.

Question: What about the “Initial Color/Appearance” value ([2]; pH buffered at 6) of the same molecule?
Answer: The value was “visible color”.

Question: And the “Initial Color/Appearance” value ([2]; pH buffered at 8)?
Answer: Its value is “visible color”.

Question: And the “Initial Color/Appearance” value ([2]; pH buffered at 10)?
Answer: Its value is “colorless”.

Question: And the “Initial Color/Appearance” value ([2]; pH buffered at 12)?
Answer: Its value is “colorless”.

Question: And the Color/Appearance ([2]; pH buffered at 2, 0.0 hours)?
Answer: Its Color/Appearance is “color gone immediately”.

Question: What about the “Time needed for solution to become colorless” value (“Time needed for solution” for short) ([2]; pH buffered at 2) of the same molecule?
Answer: The value was “none”.

Question: What about the Color/Appearance ([2]; pH buffered at 2, 175 hours) of the same molecule?
Answer: Its Color/Appearance is “no color”.

Question: What about the “Time needed for solution” value ([2]; pH buffered at 4) of the same molecule?
Answer: Its value is 2.5 h.

Question: And the Color/Appearance ([2]; pH buffered at 4, 2.5 hours)?
Answer: The Color/Appearance was “color gone”.

Question: And the Color/Appearance ([2]; pH buffered at 4, 175 hours)?
Answer: The Color/Appearance was “no color”.

Question: What about the “Time needed for solution” value ([2]; pH buffered at 5.4) of the same molecule?
Answer: The value was 15 h.

Question: And the “Time needed for solution” value ([2]; pH buffered at 5.8)?
Answer: Its value is 5.0 h.

Question: What about the “Time needed for solution” value ([2]; pH buffered at 6) of the same molecule?
Answer: The value was 4.0 h.

Question: What about the Color/Appearance ([2]; pH buffered at 6, 5.0 hours) of the same molecule?
Answer: The Color/Appearance was “slightly visible”.

Question: What about the Color/Appearance ([2]; pH buffered at 6, 175 hours) of the same molecule?
Answer: The Color/Appearance was “no color”.

Question: And the “Time needed for solution” value ([2]; pH buffered at 8)?
Answer: The value was 0.25 h.

Question: What about the Color/Appearance ([2]; pH buffered at 8, 0.25 hours) of the same molecule?
Answer: The Color/Appearance was “color gone”.

Question: And the Color/Appearance ([2]; pH buffered at 8, 175 hours)?
Answer: The Color/Appearance was “no color”.

Question: What about the Color/Appearance ([2]; pH buffered at 10, 0.0 hours) of the same molecule?
Answer: Its Color/Appearance is “color gone immediately”.

Question: What about the “Time needed for solution” value ([2]; pH buffered at 10) of the same molecule?
Answer: The value was “none”.

Question: And the Color/Appearance ([2]; pH buffered at 10, 175 hours)?
Answer: The Color/Appearance was “no color”.

Question: And the Color/Appearance ([2]; pH buffered at 12, 0.0 hours)?
Answer: Its Color/Appearance is “color gone immediately”.

Question: And the “Time needed for solution” value ([2]; pH buffered at 12)?
Answer: Its value is “none”.

Question: What about the Color/Appearance ([2]; pH buffered at 12, 175 hours) of the same molecule?
Answer: Its Color/Appearance is “no color”.

Question: What about the “Initial Color/Appearance” value ([3]; 10 ppm available chlorine) of the same molecule?
Answer: Its value is “visible”.

Question: What about the “Time needed for solution” value ([3]; 10 ppm available chlorine) of the same molecule?
Answer: The value was “more than 6.0 hours”.

Question: And the “Initial Color/Appearance” value ([3]; 30 ppm available chlorine)?
Answer: The value was “visible”.

Question: What about the “Time needed for solution” value ([3]; 30 ppm available chlorine) of the same molecule?
Answer: The value was 6.0 h.

Question: And the “Initial Color/Appearance” value ([3]; 50 ppm available chlorine)?
Answer: The value was “visible”.

Question: What about the “Time needed for solution” value ([3]; 50 ppm available chlorine) of the same molecule?
Answer: Its value is 5.0 h.

Question: And the “Initial Color/Appearance” value ([3]; 80 ppm available chlorine)?
Answer: The value was “visible”.

Question: And the “Time needed for solution” value ([3]; 80 ppm available chlorine)?
Answer: Its value is 4.5 h.

Question: And the “Initial Color/Appearance” value ([3]; 100 ppm available chlorine)?
Answer: Its value is “visible”.

Question: What about the “Time needed for solution” value ([3]; 100 ppm available chlorine) of the same molecule?
Answer: The value was 3.0 h.

Question: And the “relationship between dye concentration and color longevity” value ([3]; dye level 0.1 to 0.4 wt-%, 100 ppm available chlorine)?
Answer: The value was “linear relationship between dye concentration and color longevity”.
